Laboratory results from PMC7531004, “Discovery of gramicidin A analogues with altered activities by multidimensional screening of a one-bead-one-compound library” (Nature Communications, 2020).
Where a SMILES comes first, the peptide text is derived from it. [ ]: non-standard residue; d: D form. The star is where a group is joined. NHCH2CH2OH = OCCN*; For = O=C*

Legend:
[1] = cell viability/%
Procedure, shortened: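 Peptide stocks diluted 250× in growth medium; P388 cells 1 × 10^4 cells/mL final; 37 °C, 5% CO2, 92 h. WST-1 + 1-methoxy PMS, 4 h, A415. Output: % viability.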

[2] = H+/Na+ transport assay of bead-derived peptides (one-point); type: biochemical; design: key: relative activity; mean of two control wells = 1.00; details: bead-derived peptide solution, EYPC/EYPG LUVs;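 also: relative to parent gramicidin A activity set to 1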
Procedure, shortened: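 H+/Na+ transport is monitored through pyranine fluorescence in freshly extruded LUVs after a 30-min room-temperature vortex with each library peptide at a single concentration. Signals are normalized to detergent (Triton X-100) and untreated controls.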

[3] = system: Streptococcus pyogenes SSI-9; test: Antibacterial activity assay of bead-derived peptides (three concentrations); type: cell-based; design: key: +++: inhibition by the 640-fold diluted peptide solution; ++: inhibition by the 160-fold diluted solution; +: inhibition by the 40-fold diluted solution; -: no inhibition; details: S. pyogenes, bead-derived peptide solution, three concentrations
Procedure, shortened: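 First, each peptide stock was diluted 4- and 16-fold in DMSO; next, the three solutions were mixed with S. pyogenes SSI-9 suspension (2 × 10^5 CFU) in cation-adjusted Mueller Hinton Broth plus 5% laked horse blood; finally, plates stood 18 h at 37 °C before checking for grown-cell precipitation.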

Structure (SMILES) | viability [1] [%] | H+/Na+ transport activity normalized against the value of 1 (1.00) [2] | antibacterial activity [3]
CC(C)C[C@@H](NC(=O)[C@@H](NC(=O)[C@H](NC(=O)[C@H](C)NC(=O)[C@H](NC(=O)[C@H](C)NC(=O)CNC(=O)[C@@H](NC=O)C(C)C)C(C)C)C(C)C)C(C)C)C(=O)N[C@@H](Cc1c[nH]c2ccccc12)C(=O)N[C@@H](C(=O)N[C@@H](Cc1c[nH]c2ccccc12)C(=O)N[C@@H](C(=O)N[C@@H](Cc1c[nH]c2ccccc12)C(=O)N[C@@H](C(=O)N[C@@H](Cc1c[nH]c2ccccc12)C(=O)NCCO)[C@H](C)O)C(C)C)C(C)C [compound 7050] (For-VGA[dV]A[dV]V[dL]W[dV]W[dV]W[dT]W-NHCH2CH2OH) | 100 | 1.21 | -
CC(C)C[C@@H](NC(=O)[C@H](C)NC(=O)[C@H](NC(=O)[C@H](C)NC(=O)CNC(=O)[C@@H](NC=O)C(C)C)C(C)C)C(=O)N[C@H](C(=O)N[C@H](CC(C)C)C(=O)N[C@@H](Cc1c[nH]c2ccccc12)C(=O)N[C@H](CC(C)C)C(=O)N[C@@H](Cc1c[nH]c2ccccc12)C(=O)N[C@@H](C(=O)N[C@@H](Cc1c[nH]c2ccccc12)C(=O)N[C@@H](C(=O)N[C@@H](Cc1c[nH]c2ccccc12)C(=O)NCCO)[C@H](C)O)C(C)C)C(C)C [compound 3828] (For-VGA[dV]A[dL]V[dL]W[dL]W[dV]W[dT]W-NHCH2CH2OH) | 95.2 | 1.02 | +
CC(C)C[C@@H](NC(=O)[C@H](C)NC(=O)CNC(=O)[C@@H](NC=O)C(C)C)C(=O)N[C@@H](C)C(=O)N[C@@H](C(=O)N[C@H](C(=O)N[C@@H](C(=O)N[C@@H](Cc1c[nH]c2ccccc12)C(=O)N[C@H](CC(C)C)C(=O)N[C@@H](Cc1c[nH]c2ccccc12)C(=O)N[C@@H](C(=O)N[C@@H](Cc1c[nH]c2ccccc12)C(=O)N[C@@H](C(=O)N[C@@H](Cc1c[nH]c2ccccc12)C(=O)NCCO)[C@H](C)O)C(C)C)C(C)C)C(C)C)C(C)C [compound 7010] (For-VGA[dL]A[dV]V[dV]W[dL]W[dV]W[dT]W-NHCH2CH2OH) | 100 | 1.07 | +
CC(C)C[C@@H](NC(=O)[C@H](C)NC(=O)[C@H](NC(=O)[C@H](C)NC(=O)CNC(=O)[C@@H](NC=O)C(C)C)C(C)C)C(=O)N[C@H](C(=O)N[C@@H](C(=O)N[C@@H](Cc1c[nH]c2ccccc12)C(=O)N[C@@H](C(=O)N[C@@H](Cc1c[nH]c2ccccc12)C(=O)N[C@H](CC(C)C)C(=O)N[C@@H](Cc1c[nH]c2ccccc12)C(=O)N[C@@H](C(=O)N[C@@H](Cc1c[nH]c2ccccc12)C(=O)NCCO)C(C)C)C(C)C)C(C)C)C(C)C [compound 11268] (For-VGA[dV]A[dL]V[dV]W[dV]W[dL]W[dV]W-NHCH2CH2OH) | 100 | 1.06 | +
CNC(=O)C[C@@H](NC(=O)[C@H](C)NC(=O)[C@H](NC(=O)[C@H](C)NC(=O)CNC(=O)[C@@H](NC=O)C(C)C)C(C)C)C(=O)N[C@H](C(=O)N[C@@H](C(=O)N[C@@H](Cc1c[nH]c2ccccc12)C(=O)N[C@@H](C(=O)N[C@@H](Cc1c[nH]c2ccccc12)C(=O)N[C@H](CC(C)C)C(=O)N[C@@H](Cc1c[nH]c2ccccc12)C(=O)N[C@H](CC(C)C)C(=O)N[C@@H](Cc1c[nH]c2ccccc12)C(=O)NCCO)C(C)C)C(C)C)C(C)C [compound 5211] (For-VGA[dV]A[dD](NHMe)V[dV]W[dV]W[dL]W[dL]W-NHCH2CH2OH) | 100 | 1.05 | -
CC(C)C[C@@H](NC(=O)[C@H](C)NC(=O)CNC(=O)[C@@H](NC=O)C(C)C)C(=O)N[C@@H](C)C(=O)N[C@@H](C(=O)N[C@H](C(=O)N[C@@H](C(=O)N[C@@H](Cc1c[nH]c2ccccc12)C(=O)N[C@H](CC(C)C)C(=O)N[C@@H](Cc1c[nH]c2ccccc12)C(=O)N[C@@H](C(=O)N[C@@H](Cc1c[nH]c2ccccc12)C(=O)N[C@@H](C(=O)N[C@@H](Cc1c[nH]c2ccccc12)C(=O)NCCO)C(C)C)C(C)C)C(C)C)C(C)C)C(C)C [compound 5587] (For-VGA[dL]A[dV]V[dV]W[dL]W[dV]W[dV]W-NHCH2CH2OH) | 85.3 | 1.23 | ++
CC(C)C[C@@H](NC(=O)[C@H](Cc1c[nH]c2ccccc12)NC(=O)[C@H](NC(=O)[C@H](Cc1c[nH]c2ccccc12)NC(=O)[C@H](NC(=O)[C@@H](NC(=O)[C@H](NC(=O)[C@H](C)NC(=O)[C@H](NC(=O)[C@H](C)NC(=O)CNC(=O)[C@@H](NC=O)C(C)C)C(C)C)C(C)C)C(C)C)C(C)C)[C@H](C)O)C(=O)N[C@@H](Cc1c[nH]c2ccccc12)C(=O)N[C@@H](C(=O)N[C@@H](Cc1c[nH]c2ccccc12)C(=O)NCCO)C(C)C [compound 2066] (For-VGA[dV]A[dV]V[dV]W[dT]W[dL]W[dV]W-NHCH2CH2OH) | 100 | 1.07 | -
CC(C)C[C@@H](NC(=O)[C@H](C)NC(=O)[C@H](NC(=O)[C@H](C)NC(=O)CNC(=O)[C@@H](NC=O)C(C)C)C(C)C)C(=O)N[C@H](C(=O)N[C@H](CC(C)C)C(=O)N[C@@H](Cc1c[nH]c2ccccc12)C(=O)N[C@H](CC(C)C)C(=O)N[C@@H](Cc1c[nH]c2ccccc12)C(=O)N[C@@H](C(=O)N[C@@H](Cc1c[nH]c2ccccc12)C(=O)N[C@@H](C(=O)N[C@@H](Cc1c[nH]c2ccccc12)C(=O)NCCO)[C@H](C)O)[C@H](C)O)C(C)C [compound 4322] (For-VGA[dV]A[dL]V[dL]W[dL]W[dT]W[dT]W-NHCH2CH2OH) | 100 | 1.05 | -
CNC(=O)C[C@@H](NC(=O)[C@H](C)NC(=O)[C@@H](CC(C)C)NC(=O)[C@H](C)NC(=O)CNC(=O)[C@@H](NC=O)C(C)C)C(=O)N[C@H](C(=O)N[C@@H](C(=O)N[C@@H](Cc1c[nH]c2ccccc12)C(=O)N[C@@H](C(=O)N[C@@H](Cc1c[nH]c2ccccc12)C(=O)N[C@H](CC(C)C)C(=O)N[C@@H](Cc1c[nH]c2ccccc12)C(=O)N[C@@H](C(=O)N[C@@H](Cc1c[nH]c2ccccc12)C(=O)NCCO)C(C)C)C(C)C)C(C)C)C(C)C [compound 8583] (For-VGA[dL]A[dD](NHMe)V[dV]W[dV]W[dL]W[dV]W-NHCH2CH2OH) | 63.4 | 1.15 | -
CNC(=O)C[C@@H](NC(=O)[C@H](C)NC(=O)[C@@H](CC(C)C)NC(=O)[C@H](C)NC(=O)CNC(=O)[C@@H](NC=O)C(C)C)C(=O)N[C@H](C(=O)N[C@@H](C(=O)N[C@@H](Cc1c[nH]c2ccccc12)C(=O)N[C@H](CC(C)C)C(=O)N[C@@H](Cc1c[nH]c2ccccc12)C(=O)N[C@H](CC(C)C)C(=O)N[C@@H](Cc1c[nH]c2ccccc12)C(=O)N[C@@H](C(=O)N[C@@H](Cc1c[nH]c2ccccc12)C(=O)NCCO)C(C)C)C(C)C)C(C)C [compound 346] (For-VGA[dL]A[dD](NHMe)V[dV]W[dL]W[dL]W[dV]W-NHCH2CH2OH) | 100 | 1.12 | -
CNC(=O)C[C@@H](NC(=O)[C@H](Cc1c[nH]c2ccccc12)NC(=O)[C@@H](CC(C)C)NC(=O)[C@H](Cc1c[nH]c2ccccc12)NC(=O)[C@H](NC(=O)[C@H](Cc1c[nH]c2ccccc12)NC(=O)[C@H](NC(=O)[C@@H](NC(=O)[C@H](NC(=O)[C@H](C)NC(=O)[C@@H](CC(C)C)NC(=O)[C@H](C)NC(=O)CNC(=O)[C@@H](NC=O)C(C)C)C(C)C)C(C)C)C(C)C)C(C)C)C(=O)N[C@@H](Cc1c[nH]c2ccccc12)C(=O)NCCO [compound 4898] (For-VGA[dL]A[dV]V[dV]W[dV]W[dL]W[dD](NHMe)W-NHCH2CH2OH) | 100 | 1.21 | -
CC(C)C[C@@H](NC(=O)[C@H](C)NC(=O)[C@H](NC(=O)[C@H](C)NC(=O)CNC(=O)[C@@H](NC=O)C(C)C)[C@H](C)O)C(=O)N[C@H](C(=O)N[C@H](CC(C)C)C(=O)N[C@@H](Cc1c[nH]c2ccccc12)C(=O)N[C@@H](C(=O)N[C@@H](Cc1c[nH]c2ccccc12)C(=O)N[C@@H](C(=O)N[C@@H](Cc1c[nH]c2ccccc12)C(=O)N[C@H](CC(C)C)C(=O)N[C@@H](Cc1c[nH]c2ccccc12)C(=O)NCCO)C(C)C)[C@H](C)O)C(C)C [compound 5532] (For-VGA[dT]A[dL]V[dL]W[dT]W[dV]W[dL]W-NHCH2CH2OH) | 100 | 1.06 | -
CC(C)C[C@@H](NC(=O)[C@H](C)NC(=O)[C@H](NC(=O)[C@H](C)NC(=O)CNC(=O)[C@@H](NC=O)C(C)C)C(C)C)C(=O)N[C@H](C(=O)N[C@@H](C(=O)N[C@@H](Cc1c[nH]c2ccccc12)C(=O)N[C@H](CC(C)C)C(=O)N[C@@H](Cc1c[nH]c2ccccc12)C(=O)N[C@H](CC(C)C)C(=O)N[C@@H](Cc1c[nH]c2ccccc12)C(=O)N[C@@H](C(=O)N[C@@H](Cc1c[nH]c2ccccc12)C(=O)NCCO)C(C)C)[C@H](C)O)C(C)C [compound 6160] (For-VGA[dV]A[dL]V[dT]W[dL]W[dL]W[dV]W-NHCH2CH2OH) | 70.3 | 1.07 | +
